Tested on: Cell Line A549 (human lung cancer epithelial cells)
Assay: Cell cycle characterization of Taxol-treated A549 cells by image analysis of DAPI-stained DNA
Assay type: cell-based
Method: FIGS. 14A-14G depict the results of an experiment in which human lung cancer epithelial cells were treated with Taxol and the effect of Taxol on the cell cycle was characterized. The specific cells used in this study were from Cell Line A549 (human lung cancer epithelial cells) (ATCC:CCL-185). Two day staged cell cultures of the A549 cells were trypsinized for five minutes from T175 cm flasks. The cells were then suspended in ten milliliters of RPMI media with ten percent serum and counted using both a hemocytometer and Coulter Counter. The suspension was diluted further in media to ensure that there were 1600 cells per twenty microliters in suspension. The cells were then counted again. Thereafter, they were transferred to a Cell Stir and kept in suspension while being plated into barcoded 384 well plates using a MultiDrop at twenty microliters per well. The plates were transferred to a humidified carbon dioxide incubator to recover for twenty-four hours before the addition of Taxol or DMSO. Prior to imaging the cells were treated with DAPI to stain DNA. Cells from each well were then imaged.
Of relevance to this example, eight wells were treated with Taxol at varying concentrations and eight other “control” wells were treated with DMSO, which is not toxic to the cells under consideration. The concentration of Taxol varied from approximately 0.09 micromolar to 200 micromolar. […] Cells in each of the eight Taxol wells were separately imaged and the total measured intensity in each cell was recorded. As discussed above, the total intensity corresponds to the amount of DNA in each cell. In the histogram, the cell count has been normalized so that the area under each curve was equal to a value of one.
The data used to produce the histogram of FIG. 14B was taken from the same images of the eight Taxol containing wells used to produce the histogram of FIG. 14A. In this histogram, the mitotic discriminator is defined as log2(average intensity) minus log2(area).
The five phases are G1, S, G2, m (telophase), and M (prophase, metaphase, and anaphase). […]

Compound: CC(=O)O[C@H]1C(=O)[C@@]2(C)[C@H]([C@H](OC(=O)c3ccccc3)[C@]3(O)C[C@H](OC(=O)[C@H](O)[C@@H](NC(=O)c4ccccc4)c4ccccc4)C(C)=C1C3(C)C)[C@]1(OC(C)=O)CO[C@@H]1C[C@@H]2O [Taxol]
- distribution of cells based upon the amount of DNA contained in each cell (log2 total intensity histogram; G1 vs G2 peaks) (Taxol approximately 0.09 micromolar to 200 micromolar, eight wells, DAPI stain, FIG. 14A): arrests cells in the G2 phase
- mitotic discriminator (log2(average intensity) minus log2(area)); relative incidence of mitotic vs interphase cells (Taxol approximately 0.09 to 200 micromolar, FIG. 14B): greatly increase the relative incidence of mitotic cells
- number of objects divided by the average number of DMSO objects ("o" curve; objects correspond to living cells) (Taxol approximately 0.09 to 200 micromolar, FIG. 14C): decreases with increasing concentration of Taxol
